Assay results from ChEMBL document CHEMBL3885861, “Open TG-GATES”.

Species on record: Rattus norvegicus
Assay: Open TG-GATES - Regimen: Single
Type: toxicity, organism-based, Sprague-Dawley
Set-up: regimen Single, gender Male, age 6 weeks
Conditions: in vivo, po, route gavage; for APTT / Bas / Eos / Fbg / Hb / Ht / Lym / MCH / MCHC / MCV / Mono / Neu / PT / Plat / RBC / WBC: tissue Blood; for KIDNEY_L / KIDNEY_R / KIDNEY_TOTAL: tissue Kidney; for LIVER: tissue Liver; for ALT / AST / CRE / Cl / DBIL / GLC / IP / LDH / Na / RALB / TBIL / TC / TG / TP / gamma-GTP / BUN: tissue Plasma
[1] = 0 mg/kg, 3 h, dose level Control
[2] = 0 mg/kg, 6 h, dose level Control
[3] = 0 mg/kg, 9 h, dose level Control
[4] = 0 mg/kg, 24 h, dose level Control

## CC/C(=C(\c1ccccc1)c1ccc(OCCN(C)C)cc1)c1ccccc1 [TAMOXIFEN]
[1]
  TERMINAL_BW: 194.3 g
  APTT: 16.9 s
  Bas: 0%
  Eos: 0.8%
  Fbg: 248.6 mg/dL
  Hb: 13 g/dL
  Ht: 39.1%
  Lym: 76%
  MCH: 21.6 pg
  MCHC: 33.2%
  MCV: 65.1 fL
  Mono: 3.6%
  Neu: 19.2%
  PT: 12.2 s
  Plat: 123.1 x10_4/uL
  RBC: 601.8 x10_4/ul
  WBC: 87.4 x10_2/uL
  KIDNEY_L: 0.9 g
  KIDNEY_R: 0.8 g
  KIDNEY_TOTAL: 1.7 g
  LIVER: 8.3 g
  ALT: 47.6 IU/L
  AST: 77.6 IU/L
  CRE: 0.2 mg/dL
  Cl: 106.8 meq/L
  DBIL: 0.02 mg/dL
  GLC: 173.6 mg/dL
  IP: 10.2 mg/dL
  LDH: 69.6 IU/L
  Na: 140.8 meq/L
  RALB: 2.6 g/dL
  TBIL: 0.042 mg/dL
  TC: 86.4 mg/dL
  TG: 94.6 mg/dL
  TP: 5.6 g/dL
  gamma-GTP: 1.4 IU/L
[2]
  TERMINAL_BW: 192.7 g
  APTT: 16.1 s
  Bas: 0%
  Eos: 1%
  Fbg: 261.5 mg/dL
  Hb: 13.2 g/dL
  Ht: 39.6%
  Lym: 69.8%
  MCH: 21.8 pg
  MCHC: 33.4%
  MCV: 65.3 fL
  Mono: 3.2%
  Neu: 25.8%
  PT: 12.1 s
  Plat: 118.7 x10_4/uL
  RBC: 607 x10_4/ul
  WBC: 64.1 x10_2/uL
  KIDNEY_L: 0.8 g
  KIDNEY_R: 0.8 g
  KIDNEY_TOTAL: 1.7 g
  LIVER: 7.8 g
  ALT: 37.8 IU/L
  AST: 73 IU/L
  BUN: 9.8 mg/dL
  CRE: 0.2 mg/dL
  Cl: 110.2 meq/L
  DBIL: 0.015 mg/dL
  GLC: 171.2 mg/dL
  IP: 10 mg/dL
  LDH: 52.2 IU/L
  Na: 142.2 meq/L
  RALB: 2.6 g/dL
  TBIL: 0.0425 mg/dL
  TC: 86.5 mg/dL
  TG: 59 mg/dL
  TP: 5.4 g/dL
  gamma-GTP: 1 IU/L
[3]
  TERMINAL_BW: 194.3 g
  APTT: 16.5 s
  Bas: 0%
  Eos: 1%
  Fbg: 259.6 mg/dL
  Hb: 12.8 g/dL
  Ht: 38.4%
  Lym: 75.2%
  MCHC: 33.4%
  MCV: 64 fL
  Mono: 3%
  PT: 12.2 s
  Plat: 111.1 x10_4/uL
  RBC: 599.4 x10_4/ul
  WBC: 73.7 x10_2/uL
  KIDNEY_L: 0.8 g
  KIDNEY_R: 0.8 g
  KIDNEY_TOTAL: 1.6 g
  LIVER: 7.1 g
  ALT: 42.4 IU/L
  AST: 71.8 IU/L
  BUN: 10.2 mg/dL
  CRE: 0.2 mg/dL
  Cl: 107.2 meq/L
  DBIL: 0.012 mg/dL
  GLC: 184.6 mg/dL
  LDH: 50 IU/L
  Na: 142.8 meq/L
  RALB: 2.5 g/dL
  TBIL: 0.05 mg/dL
  TC: 84.6 mg/dL
  TG: 37.4 mg/dL
  TP: 5.3 g/dL
  gamma-GTP: 1.6 IU/L
[4]
  TERMINAL_BW: 200.5 g
  APTT: 15.5 s
  Bas: 0%
  Eos: 1%
  Fbg: 258.4 mg/dL
  Hb: 13 g/dL
  Ht: 38.9%
  Lym: 70.6%
  MCH: 21.5 pg
  MCHC: 33.5%
  MCV: 64.2 fL
  Mono: 4%
  Neu: 24%
  PT: 12.3 s
  Plat: 116.6 x10_4/uL
  RBC: 605.8 x10_4/ul
  WBC: 89.9 x10_2/uL
  KIDNEY_L: 0.9 g
  KIDNEY_R: 0.9 g
  KIDNEY_TOTAL: 1.8 g
  LIVER: 9.1 g
  ALT: 51.8 IU/L
  AST: 76.2 IU/L
  BUN: 14.6 mg/dL
  CRE: 0.2 mg/dL
  Cl: 107.2 meq/L
  DBIL: 0.012 mg/dL
  GLC: 183.8 mg/dL
  IP: 7.8 mg/dL
  LDH: 69 IU/L
  Na: 142.4 meq/L
  RALB: 2.6 g/dL
  TBIL: 0.034 mg/dL
  TC: 93.2 mg/dL
  TG: 83 mg/dL
  TP: 5.5 g/dL
  gamma-GTP: 1 IU/L
6 mg/kg, 3 h, dose level Low
  TERMINAL_BW: 191.8 g
